Source: the NIST ThermoML archive (doi:10.1021/je300775u)

Test: xn = mol fraction of the nth substance listed
Conditions: 101 kPa, Liquid; for speed of sound: Pulse-echo method; for mass density: Vibrating tube method

ClC(Cl)(Cl)Br [bromotrichloromethane] + BrCBr
Conditions | mass density, 293.15 K [kg/m3] | mass density, 298.15 K [kg/m3] | speed of sound, 293.15 K [m/s] | speed of sound, 298.15 K [m/s] | speed of sound, 303.15 K [m/s]
x1 = 0.0506 | 2455.57 | 2442.67 | 957 | 944.4 | 931.7
x1 = 0.0993 | 2424.17 | 2411.4 | 953 | 940.3 | 927.6
x1 = 0.1491 | 2392.98 | 2380.34 | 948.9 | 936.2 | 923.4
x1 = 0.1991 | 2363.17 | 2350.66 | 945.3 | 932.6 | 919.8
x1 = 0.2473 | 2335.59 | 2323.21 | 942.1 | 929.3 | 916.5
x1 = 0.2986 | 2307.34 | 2295.08 | 939.1 | 926.2 | 913.2
x1 = 0.3465 | 2281.89 | 2269.75 | 936.3 | 923.3 | 910.5
x1 = 0.3979 | 2255.64 | 2243.64 | 933.6 | 920.7 | 907.7
x1 = 0.4468 | 2231.41 | 2219.49 | 931.3 | 918.3 | 905.3
x1 = 0.4967 | 2207.74 | 2195.91 | 929.1 | 916.1 | 903.1
x1 = 0.5462 | 2185.38 | 2173.66 | 927.2 | 914.1 | 901.1
x1 = 0.5975 | 2162.89 | 2151.29 | 925.3 | 912.2 | 899.1
x1 = 0.6479 | 2141.49 | 2130.01 | 923.7 | 910.6 | 897.4
x1 = 0.6947 | 2122.35 | 2110.96 | 922.4 | 909.2 | 896
x1 = 0.7469 | 2101.9 | 2090.59 | 921 | 907.7 | 894.5
x1 = 0.7959 | 2083.33 | 2072.08 | 919.9 | 906.6 | 893.4
x1 = 0.8494 | 2063.55 | 2052.39 | 918.8 | 905.5 | 892.2
x1 = 0.898 | 2046.2 | 2035.13 | 918 | 904.6 | 891.3
x1 = 0.9469 | 2029.71 | 2018.65 | 917.4 | 904 | 890.6
x1 = 1 | 2013.06 | 2002.14 | 917.1 | 903.6 | 890.2
